# Test results: patent publication US3976763A, “Chlorpromazine assay” (Hoffmann-La Roche Inc., priority 1975, dated 1976)
# What was measured:
# [1] = test system: antibody in the antiserum of rabbit immunized by the CPZ-BSA immunogen; assay: Radioimmunoassay specificity: inhibition of 3H-CPZ binding to antibody; details: for concentration required to produce a 50% inhibition of 3H-chlorpromazine-antibody binding, relative to chlorpromazine: multiple of the CPZ concentration; for binding by the antibody (in words): competition with labeled CPZ
# Description: The antiserum of EXAMPLE 2 as used for the radioimmunoassay was diluted with normal rabbit serum which was diluted with phosphate-buffered saline, pH 7.4, at 1:10 dilution. To determine the antibody titre of antiserum, 0.1 ml. of various dilutions of the antiserum was incubated in an assay tube (10 × 75 mm) with 320 pg of ^3 H-CPZ approximately 7,000 dpm, at 4°C. overnight. The volume was adjusted to 0.5 ml. with phosphate-buffered salie, pH 7.4 which is the optimal pH for the assay. The antibody bound CPZ was separated from free CPZ by the addition of saturated ammonium sulfate which was adjusted to pH 7.4 with ammonium hydroxide as described by Farr, J. Infect. Dis. 103, 239 (1958). After two washings with 50% saturated ammonium sulfate, the precipitate was dissolved in 0.5 ml. of water. The content of the tube was transferred to a counting vial and the tube was then washed four times with 3 ml. of Riaflour. The 12 ml. washings were all collected in the vial. The radioactivity was then counted with a Beckman liquid scintillation counter. Thedilution of the antiserum chosen for further studies were 1:7,000.
# Appropriate volume of phosphate-buffered saline, pH 7.4 was added to all the tubes containing 0.1 ml. of the antiserum to make a final incubation volume of 0.5 ml. To the tubes were added various quantities ranging from 100 ng. to 10 pg. (10 1) of CPZ, its derivatives, serotonin and dopamine. After a 15 minute preincubation, 10 l. of ^3 H-CPZ was added. The tubes were then incubated overnight at 4°C. followed by precipitation with ammonium sulfate.
# Background and non-specific protein binding of ^3 H-CPZ were determined by excluding the antiserum from the incubation mixture. The counts representing the non-specific binding were then subtracted from all samples.
# The specificity of the antibody in the antiserum of rabbit immunized by the CPZ-BSA immunogen was determined by incubating the antiserum with a number of CPz derivatives or the biologenic amines in the presence of labeled CPZ. […] CPZ substituted at C6, C7, or C8 with hydroxy group was not bound by the antibody to the same extent as CPZ. In order to obtain a 50% inhibition of ^3 H-CPZ-antibody complex formation, these hydroxylated derivatives of CPZ required concentrations which were 5-10 times that of CPZ. […] The 7hydroxy derivatives of Nor1 -CPZ or Nor2 CPZ likewise were poorly bound by the antibody. Another metabolic product which can be formed from CPZ is CPZ-N-oxide. […] Promazine, the dechlorinated derivative required about 8 times the concentration of CPZ to produce a 50% displacement of the labeled CPZ from the antibody.
# [2] = Disposition of CPZ in rats: plasma level by radioimmunoassay; format: in vivo, Male Sprague-Dawley rats; details: iv, rat, 10 mg/kg CPZ hydrochloride intravenously, after initial rapid decline
# Description: To determine the plasma concentration of CPZ, aliquots of plasma from animals which received CPZ were diluted with normal rat plasma. To the assay tubes containing antiserum, phosphate-buffered saline, pH 7.4, ^3 H-CPZ and 10 l of unknown samples were added, and incubated at 4°C. overnight. Free CPZ was separated from the antibody bound CPZ by ammonium sulfate precipitation.
# Male Sprague-Dawley rats weighing 210-240 g. were injected intravenously with 10 mg/kg of CPZ hydrochloride. In one group of 6 rats, 0.1 ml. of blood samples were taken from the tail into a heparinized capillary tube at varying time intervals following the injection. The plasma was separated by centrifugation and frozen until assayed. Other 48 rats were killed by decapitation at the same intervals as above, and the brain was removed, frozen on dry ice and then kept in a deep freezer at -80°C. until assayed.
# The radioimmunoassay procedure of Example 3 was applied to the determination of CPZ and some minor metabolites in rat plasma and brain following intravenous administration of CPZ hydrochloride.
# [3] = Disposition of CPZ in rats: brain level by radioimmunoassay; format: in vivo, Male Sprague-Dawley rats; details: rat
# Description: The extraction of CPZ from the brain homogenate was necessary as the compound bound to the tissue. The brain was homogenized with 4 volumes of 0.05 N HCl. To a 0.1 ml. aliquot of the brain homogenate, 0.05 ml. of 0.5 N NaOH and 1.5 ml. of petroleum ether containing 10% isopropyl alcohol were added. The tube was vortexed twice for 20 seconds and then centrifuged at 3000 r.p.m. at 8°C. for 10 minutes. The tube was dipped in a dry ice-acetone bath and the aqueous layer was frozen. The upper organic layer was then transferred to another tube and evaporated to dryness under vacuum. The residue was dissolved in an appropriate volume of 25% isopropyl alcohol. To the assay tube containing antiserum, phosphate-buffered saline, pH 7.4 and ^3 H-CPZ, 10 μl of unknown sample was added.
smiles,measurement,setting,value
CN(C)CCCN1c2ccc(O)cc2Sc2ccc(Cl)cc21 [7-hydroxychlorpromazine],"concentration required to produce a 50% inhibition of 3H-chlorpromazine-antibody binding, relative to chlorpromazine",[1],5-10 times
CN(C)CCCN1c2cc(O)ccc2Sc2ccc(Cl)cc21 [8-hydroxychlorpromazine],"concentration required to produce a 50% inhibition of 3H-chlorpromazine-antibody binding, relative to chlorpromazine",[1],5-10 times
"CN(C)CCCN1c2ccccc2Sc2ccc(Cl)cc21 [CPZ, Chlorpromazine]",concentration producing a 50% inhibition of binding of 3H-CPZ to the antibody,"[1]; 320 pg 3H-CPZ, antiserum 1:7,000, 0.5 ml, pH 7.4, 4°C overnight",118 pg
same,half-life,[2],~4 h
same,time to peak brain level of CPZ and metabolites,[3]; 10 mg/kg CPZ hydrochloride intravenously,Five
same,persistence of peak brain level,"[3]; in vivo, iv, 10 mg/kg",30 min
C[N+](C)([O-])CCCN1c2ccccc2Sc2ccc(Cl)cc21 [CPZ-N-oxide],binding by the antibody (in words),[1],not bound to the antibody to any appreciable extent
CN(C)CCCN1c2ccccc2[S+]([O-])c2ccc(Cl)cc21 (stereo not drawn) [chlorpromazine sulfoxide],binding by the antibody (in words),[1],not bound significantly
same,binding by the antibody (in words),[1]; listed as CPZ-sulfoxide,not recognized by the antibody unless the concentrations were high
CNCCCN1c2ccccc2Sc2ccc(Cl)cc21 [nor1 -chlorpromazine],binding by the antibody (in words),[1],not bound significantly
same,binding by the antibody (in words),[1]; listed as Nor1 -CPZ,bound by the antibody to a much lesser extent
NCCCN1c2ccccc2Sc2ccc(Cl)cc21 [nor2 -chlorpromazine],binding by the antibody (in words),[1],not bound significantly
same,binding by the antibody (in words),[1]; listed as Nor2 -CPZ,failed to recognize the compound unless the concentrations were extremely high
CN(C)CCCN1c2ccccc2Sc2ccccc21 [promazine],"concentration required to produce a 50% inhibition of 3H-chlorpromazine-antibody binding, relative to chlorpromazine",[1],5-10 times
same,"concentration required to produce a 50% inhibition of 3H-chlorpromazine-antibody binding, relative to chlorpromazine",[1]; listed as Promazine,about 8 times
